Experimental data from patent publication US20080096894A1, “Anti-Bacterial Compounds” (ASTON UNIVERSITY, priority 2005, published 2008).
In brackets after ≈: the same amount, converted by molar mass. Like-named read-outs stand apart in the source and are kept apart here.

Legend:
[1] = tested on: human mononuclear leucocytes (MNL, white blood cells); assay: direct leucocyte toxicity, tryptan blue exclusion, 18 hours; assay type: cell-based
Protocol: The in vitro assay used human mononuclear leucocytes (MNL, white blood cells) which were incubated with the test compound for 18 hours and cell death determined by tryptan blue exclusion (tryptan blue is a dye, which stains dead cells, whilst living cells extrude it).
The toxicity of 4PYcq and the aldehyde cq and pyridine-4-carboxamidrazone precursors were assessed using the same in vitro assay with human mononuclear leucocytes as that described above. The toxicity of related compounds, 2-hydroxybenzylidene-pyridine-2-carboxamidrazone 4PYbw and benzylidenepyridine-2-carboxamidrazone 4PYaa were also examined.

MRSA = assay: MIC, agar dilution, multipoint inoculator; assay type: cell-based, methicillin-resistant Staphylococcus aureus
Protocol: (§1) This activity was measured using a multipoint inoculator method as follows. The MIC for each compound was measured using an agar dilution method (Onda, H., et al., Int. J. Antimicrob. Agents. 18, 263 (2001)) (Mueller Hinton agar) by means of a multipoint inoculator delivering 10^4 colony forming units per spot.
‘Staph’ refers to the reference strain of S. aureus (NCTC 6571). A tick in the MRSA column refers to a positive zone against MRSA strain 96-7474, and the MIC range (in μg/ml) which follows is that found against a panel of ten MRSA strains. Where MIC values are given for MRSA, these are stated as a range of values, as testing was carried out on a panel of clinical isolates.

S. epidemisis = assay: MIC, agar dilution, multipoint inoculator; assay type: cell-based, Staphylococcus epidermidis; conditions: upper value of MIC reading
Protocol: as §1

E. faecium = assay: MIC, agar dilution, multipoint inoculator; assay type: cell-based, Enterococcus faecium; conditions: upper value of MIC reading
Protocol: as §1

S. aboni = assay: MIC, agar dilution, multipoint inoculator; assay type: cell-based; conditions: S. aboni NCTC 6017; upper value of MIC reading
Protocol: as §1

E. faecalis = assay: MIC, agar dilution, multipoint inoculator; assay type: cell-based; conditions: upper value of MIC reading
Protocol: as §1

S. aureus = assay: MIC, agar dilution, multipoint inoculator; assay type: cell-based, Staphylococcus aureus; conditions: upper value of MIC reading
Protocol: as §1

S. haemolyticus = assay: MIC, agar dilution, multipoint inoculator; assay type: cell-based; conditions: S. haemolyticus Isolate 1, upper value of MIC reading
Protocol: as §1

[2] = Staphylococcus aureus, MRSA, 18 h, panel of ten MRSA strains (clinical isolates), read-out: MRSA MIC range
[3] = MRSA Isolate 1, upper value of MIC reading, in µg/mL
[4] = MRSA Isolate 2, upper value of MIC reading, in µg/mL
[5] = MRSA Isolate 3, upper value of MIC reading, in µg/mL
[6] = MRSA Isolate 4, upper value of MIC reading, in µg/mL
[7] = MRSA Isolate 5, upper value of MIC reading, in µg/mL
[8] = MRSA Isolate 6, upper value of MIC reading, in µg/mL
[9] = MRSA Isolate 7, upper value of MIC reading, in µg/mL
[10] = MRSA Isolate 8, upper value of MIC reading, in µg/mL
[11] = MRSA Isolate 9, upper value of MIC reading, in µg/mL
[12] = MRSA Isolate 10, upper value of MIC reading, in µg/mL
[13] = panel of ten MRSA strains (clinical isolates)

CCC(C)(C)c1ccc(/C=N/N=C(\N)c2ccccn2)cc1 [Compound 2PYaf]
direct MNL toxicity (in words) [1]: indistinguishable from the background levels
% Leucocyte Death ([1]; human, 18 h, 1 mM): 3.1 ± 1.0%
MIC (MRSA; [2]): > 256 µg/mL

N=C(NN=Cc1ccccc1)c1ccccn1 [Compound 4PYaa, benzylidenepyridine-2-carboxamidrazone]
direct MNL toxicity (in words) [1]: only mildly toxic in comparison

CCC(C)(C)c1ccc(C=O)cc1 [af]
% Leucocyte Death ([1]; human, 18 h, 1 mM): 5.5 ± 3.0%

NC(=NN=Cc1cc(O)c(O)cc1O)c1cccnc1 [Compound 3PYcc]
MIC (S. epidemisis; S. epidemisis NCTC 11047): 32 µg/mL (≈ 118 µM)
MIC (E. faecium; E. faecium NCTC 7171): 256 µg/mL (≈ 940 µM)
MIC (S. aboni): 256 µg/mL (≈ 940 µM)
MIC (E. faecalis; E. faecalis Isolate 1): 256 µg/mL (≈ 940 µM)
MIC (E. faecalis; E. faecalis Isolate 2): 256 µg/mL (≈ 940 µM)
MIC (E. faecalis; E. faecalis Isolate 4): 256 µg/mL (≈ 940 µM)
MIC (E. faecalis; E. faecalis Isolate 5): 128 µg/mL (≈ 470 µM)
MIC (E. faecalis; E. faecalis NCTC 5957): 256 µg/mL (≈ 940 µM)
MIC (S. aureus; S. aureus Cowan 1): 256 µg/mL (≈ 940 µM)
MIC (S. aureus; S. aureus NCTC 6571): 256 µg/mL (≈ 940 µM)
MIC (S. aureus; S. aureus NCTC 10788): 256 µg/mL (≈ 940 µM)
MIC (MRSA; [3]): 256
MIC (MRSA; [4]): 256
MIC (MRSA; [5]): 256
MIC (MRSA; [6]): 256
MIC (MRSA; [7]): 256
MIC (MRSA; [8]): 256
MIC (MRSA; [9]): 256
MIC (MRSA; [10]): 256
MIC (MRSA; [11]): 256
MIC (MRSA; [12]): 256
MRSA MIC range (MRSA; [13]): 128 to 256 µg/mL

N=C(NN=Cc1ccccc1O)c1ccccn1 [Compound 4PYbw, 2-hydroxybenzylidene-pyridine-2-carboxamidrazone]
direct MNL toxicity (in words) [1]: only mildly toxic in comparison

NC(=NN=Cc1cc(Br)cc([N+](=O)[O-])c1O)c1cccnc1 [Compound 3PYcl]
MIC (S. epidemisis; S. epidemisis Isolate 1): 256 µg/mL (≈ 703 µM)
MIC (S. epidemisis; S. epidemisis NCTC 11047): 256 µg/mL (≈ 703 µM)
MIC (E. faecium; E. faecium ACTCC 10541): 128 µg/mL (≈ 351 µM)
MIC (E. faecium; E. faecium NCTC 7171): 256 µg/mL (≈ 703 µM)
MIC (S. aboni): 256 µg/mL (≈ 703 µM)
MIC (E. faecalis; E. faecalis EBH1): 256 µg/mL (≈ 703 µM)
MIC (E. faecalis; E. faecalis Isolate 1): 128 µg/mL (≈ 351 µM)
MIC (E. faecalis; E. faecalis Isolate 2): 128 µg/mL (≈ 351 µM)
MIC (E. faecalis; E. faecalis Isolate 4): 256 µg/mL (≈ 703 µM)
MIC (E. faecalis; E. faecalis Isolate 5): 128 µg/mL (≈ 351 µM)
MIC (E. faecalis; E. faecalis NCTC 5957): 128 µg/mL (≈ 351 µM)
MIC (S. haemolyticus): 128 µg/mL (≈ 351 µM)
MIC (S. aureus; S. aureus Cowan 1): 64 µg/mL (≈ 176 µM)
MIC (S. aureus; S. aureus NCTC 6571): 32 µg/mL (≈ 87.9 µM)
MIC (S. aureus; S. aureus NCTC 10788): 32 µg/mL (≈ 87.9 µM)
MIC (MRSA; [3]): 64
MIC (MRSA; [4]): 64
MIC (MRSA; [5]): 64
MIC (MRSA; [6]): 32
MIC (MRSA; [7]): 32
MIC (MRSA; [8]): 64
MIC (MRSA; [9]): 64
MIC (MRSA; [10]): 64
MIC (MRSA; [11]): 64
MIC (MRSA; [12]): 64
MRSA MIC range (MRSA; [13]): 16 to 64 µg/mL

N/C(=N\N=C\c1ccccc1Sc1ccc(Cl)cc1)c1ccccn1 [Compound 2PYeh]
direct MNL toxicity (in words) [1]: indistinguishable from the background levels
% Leucocyte Death ([1]; human, 18 h, 0.1 mM): 3.7 ± 2.6%

N/C(=N\N=C\c1ccccc1OCc1ccccc1)c1ccccn1 [Compound 2PYbe]
direct MNL toxicity (in words) [1]: indistinguishable from the background levels
% Leucocyte Death ([1]; human, 18 h, 0.1 mM): 5.1 ± 4.1%

O=Cc1cccc2ccccc12 [al]
% Leucocyte Death ([1]; 1.0 mM, 18 hours): 9.2 ± 4.7%

N/N=C(\N)c1ccccn1 [Compound 2PY, Pyridine-2-carboxamidrazone]
direct MNL toxicity (in words) [1]: most toxic
% Leucocyte Death ([1]; human, 18 h, 1 mM): 12.1 ± 2.2%

CC(C)(C)c1ccc(C=O)cc1 [ae]
direct MNL toxicity (in words) [1]: most toxic
% Leucocyte Death ([1]; human, 18 h, 1 mM): 24.1 ± 9.6%

CCC(C)(C)c1ccc(/C=N/N=C(\N)c2ccncc2)cc1 [Compound 4PYaf, N^1-[4-(1,1-dimethylpropyl)benzylidene]-pyridine-4-carboxamidrazone]
MIC (S. epidemisis; Staphylococcus epidermidis, 18 h, S. epidemisis Isolate 1, read-out: MIC): 64 µg/mL (≈ 217 µM)
MIC (S. epidemisis; Staphylococcus epidermidis, NCTC11047, 18 h, S. epidemisis NCTC 11047, read-out: MIC): 64 µg/mL (≈ 217 µM)
MIC (E. faecium; Enterococcus faecium, 18 h, E. faecium ACTCC 10541, read-out: MIC): 64 µg/mL (≈ 217 µM)
MIC (E. faecium; Enterococcus faecium, NCTC7171, 18 h, E. faecium NCTC 7171, read-out: MIC): 64 µg/mL (≈ 217 µM)
MIC (E. faecalis; Enterococcus faecalis, 18 h, E. faecalis EBH1, read-out: MIC): 64 µg/mL (≈ 217 µM)
MIC (E. faecalis; Enterococcus faecalis, 18 h, E. faecalis Isolate 1, read-out: MIC): 64 µg/mL (≈ 217 µM)
MIC (E. faecalis; Enterococcus faecalis, 18 h, E. faecalis Isolate 2, read-out: MIC): 64 µg/mL (≈ 217 µM)
MIC (E. faecalis; Enterococcus faecalis, 18 h, E. faecalis Isolate 3, read-out: MIC): 64 µg/mL (≈ 217 µM)
MIC (E. faecalis; Enterococcus faecalis, 18 h, E. faecalis Isolate 4, read-out: MIC): 128 µg/mL (≈ 435 µM)
MIC (E. faecalis; Enterococcus faecalis, 18 h, E. faecalis Isolate 5, read-out: MIC): 128 µg/mL (≈ 435 µM)
MIC (E. faecalis; Enterococcus faecalis, NCTC5957, 18 h, E. faecalis NCTC 5957, read-out: MIC): 64 µg/mL (≈ 217 µM)
MIC (S. haemolyticus; Staphylococcus haemolyticus, 18 h, read-out: MIC): 64 µg/mL (≈ 217 µM)
MIC (S. aureus; Staphylococcus aureus, 18 h, S. aureus Cowan 1, read-out: MIC): 64 µg/mL (≈ 217 µM)
MIC (S. aureus; Staphylococcus aureus, NCTC6571, 18 h, S. aureus NCTC 6571, read-out: MIC): 64 µg/mL (≈ 217 µM)
MIC (S. aureus; Staphylococcus aureus, NCTC10788, 18 h, S. aureus NCTC 10788, read-out: MIC): 64 µg/mL (≈ 217 µM)
MIC (MRSA; Staphylococcus aureus, 18 h, MRSA Isolate 1, upper value of MIC reading, read-out: MIC): 64 µg/mL (≈ 217 µM)
MIC (MRSA; Staphylococcus aureus, 18 h, MRSA Isolate 2, upper value of MIC reading, read-out: MIC): 64 µg/mL (≈ 217 µM)
MIC (MRSA; Staphylococcus aureus, 18 h, MRSA Isolate 3, upper value of MIC reading, read-out: MIC): 64 µg/mL (≈ 217 µM)
MIC (MRSA; Staphylococcus aureus, 18 h, MRSA Isolate 4, upper value of MIC reading, read-out: MIC): 64 µg/mL (≈ 217 µM)
MIC (MRSA; Staphylococcus aureus, 18 h, MRSA Isolate 5, upper value of MIC reading, read-out: MIC): 64 µg/mL (≈ 217 µM)
MIC (MRSA; Staphylococcus aureus, 18 h, MRSA Isolate 6, upper value of MIC reading, read-out: MIC): 64 µg/mL (≈ 217 µM)
MIC (MRSA; Staphylococcus aureus, 18 h, MRSA Isolate 7, upper value of MIC reading, read-out: MIC): 64 µg/mL (≈ 217 µM)
MIC (MRSA; Staphylococcus aureus, 18 h, MRSA Isolate 8, upper value of MIC reading, read-out: MIC): 64 µg/mL (≈ 217 µM)
MIC (MRSA; Staphylococcus aureus, 18 h, MRSA Isolate 9, upper value of MIC reading, read-out: MIC): 64 µg/mL (≈ 217 µM)
MIC (MRSA; Staphylococcus aureus, 18 h, MRSA Isolate 10, upper value of MIC reading, read-out: MIC): 64 µg/mL (≈ 217 µM)
MIC (MRSA; [2]): 32 to 64 µg/mL (≈ 109 to 217 µM)

NC(=NN=Cc1cc([N+](=O)[O-])ccc1O)c1cccnc1 [Compound 3PYcj]
MIC (S. epidemisis; S. epidemisis Isolate 1): 128 µg/mL (≈ 449 µM)
MIC (S. epidemisis; S. epidemisis NCTC 11047): 64 µg/mL (≈ 224 µM)
MIC (S. aboni): 256 µg/mL (≈ 897 µM)
MIC (E. faecalis; E. faecalis Isolate 1): 128 µg/mL (≈ 449 µM)
MIC (E. faecalis; E. faecalis Isolate 2): 128 µg/mL (≈ 449 µM)
MIC (E. faecalis; E. faecalis NCTC 5957): 256 µg/mL (≈ 897 µM)
MIC (S. aureus; S. aureus Cowan 1): 16 µg/mL (≈ 56.1 µM)
MIC (S. aureus; S. aureus NCTC 6571): 8 µg/mL (≈ 28 µM)
MIC (S. aureus; S. aureus NCTC 10788): 8 µg/mL (≈ 28 µM)
MIC (MRSA; [3]): 4
MIC (MRSA; [4]): 4
MIC (MRSA; [5]): 4
MIC (MRSA; [6]): 4
MIC (MRSA; [7]): 4
MIC (MRSA; [8]): 8
MIC (MRSA; [9]): 8
MIC (MRSA; [10]): 8
MIC (MRSA; [11]): 8
MIC (MRSA; [12]): 8
MRSA MIC range (MRSA; [13]): 2 to 8 µg/mL

CC(C)(C)c1ccc(/C=N/N=C(\N)c2ccccn2)cc1 [Compound 2PYae]
direct MNL toxicity (in words) [1]: indistinguishable from the background levels
% Leucocyte Death ([1]; human, 18 h, 0.1 mM): 1.1 ± 1.0%
